Tests used:
[1] = molecular target: T1, human RORγt (Ligand Binding Domain) (Homo sapiens, UniProt P51449); test: Fluorescence Polarization (FP) Assay; conditions: Fluorescence Polarization (FP) Assay; values given as upper bounds of activity ranges; read-out: FP activity range
T1 construct: purchased Crelux (Planegg, Germany) batch no PC5032-1
T1 sequence (P51449 269-508 limits assumed): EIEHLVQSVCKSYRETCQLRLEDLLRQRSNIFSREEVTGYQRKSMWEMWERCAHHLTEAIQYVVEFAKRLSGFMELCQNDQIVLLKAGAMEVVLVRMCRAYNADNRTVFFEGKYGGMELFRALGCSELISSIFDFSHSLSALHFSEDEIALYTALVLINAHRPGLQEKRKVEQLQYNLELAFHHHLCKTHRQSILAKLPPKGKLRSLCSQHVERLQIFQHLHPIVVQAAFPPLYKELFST
How it was run: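 Binding to the ligand pocket followed by fluorescence polarization with a TAMRA-tagged RORγt ligand probe of 910 g/mole. Negative control wells received DMSO only.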

[2] = molecular target: T2, yeast Gal4-DNA binding domain fused to the ligand binding domain of human RORγ (Homo sapiens, UniProt P51449); test: RORγ Reporter Assay (Gal4); type: cell-based; conditions: values given as lower bounds of ranges; for Gal4 activity range @ 0.1 μM (% inhibition): RORγ Reporter Assay (Gal4) at 0.1 μM; for Gal4 activity range @ 1 μM (% inhibition): RORγ Reporter Assay (Gal4) at 1 μM
T2 construct: host or cells: HEK293t
T2 sequence (P51449 269-508 limits assumed): T1 sequence (P51449 269-508 limits assumed)
How it was run: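 Compound at final 1,000 or 100 nM (0.1% DMSO, triplicate) was added to the transfected HEK293t cells carrying a Gal4-UAS luciferase reporter for 24 h at 37 °C, 10% charcoal-stripped FBS. Activity reduction expressed as percent of vehicle-only luciferase signal.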

Row | SMILES | IC50 [1] [nM] | Gal4 activity range @ 0.1 μM (% inhibition) [2] [% inhibition] | Gal4 activity range @ 1 μM (% inhibition) [2] [% inhibition]
1 | O=S(=O)(NC1CC1)c1ccc(CNc2ncnc(N3CCOC[C@@H]3c3ccc(C(F)(F)F)cc3)c2F)cc1 [Example 236, N-cyclopropyl-4-[[[5-fluoro-6-[(3S)-3-[4-(trifluoromethyl)phenyl]morpholin-4-yl]pyrimidin-4-yl]amino]methyl] benzenesulfonamide] | < 500 | >80 | >80
2 | CS(=O)(=O)N1CCC(CNc2ncnc(N3CCOC[C@@H]3c3ccc(C(F)(F)F)cc3)c2F)CC1 [Example 237, 5-fluoro-N-[(1-methylsulfonyl-4-piperidyl)methyl]-6-[(3S)-3-[4-(trifluoromethyl)phenyl]morpholin-4-yl]pyrimidin-4-amine] | < 500 | >80 | >80
3 | OC1(CNc2ncnc(N3CCOC[C@@H]3c3ccc(C(F)(F)F)cc3)c2F)CCOC1 (stereo partly drawn) [Example 238, 3-[[[5-fluoro-6-[(3S)-3-[4-(trifluoromethyl)phenyl]morpholin-4-yl]pyrimidin-4-yl]amino]methyl]tetrahydrofuran-3-ol] | < 10000 | >0 | >50
4 | OCCC1(CNc2ncnc(N3CCOC[C@@H]3c3ccc(C(F)(F)F)cc3)c2F)CCOCC1 [Example 239, 2-[4-[[[5-fluoro-6-[(3S)-3-[4-(trifluoromethyl)phenyl]morpholin-4-yl]pyrimidin-4-yl]amino]methyl]tetrahydropyran-4-yl]ethanol] | < 500 | >20 | >80
5 | CS(=O)(=O)CC1(CNc2ncnc(N3CCC[C@@H]3c3ccc(C(F)(F)F)cc3)c2F)CCOCC1 [Example 240, 5-fluoro-N-[[4-(methylsulfonylmethyl)tetrahydropyran-4-yl]methyl]-6-[(2R)-2-[4-(trifluoromethyl)phenyl]pyrrolidin-1-yl]pyrimidin-4-amine] | < 500 | >80 | >80
6 | NC(=O)CC1CCC(CNc2ncnc(N3CCOC[C@@H]3c3ccc(OC(F)(F)F)cc3)c2F)CC1 (stereo partly drawn) [Example 245, 2-[4-[[[5-fluoro-6-[(3S)-3-[4-(trifluoromethoxy)phenyl]morpholin-4-yl]pyrimidin-4-yl]amino]methyl]cyclohexyl] acetamide] | < 1000 | >20 | >80
7 | Fc1c(NCc2ccc(Cc3nnn[nH]3)cc2)ncnc1N1CCOC[C@@H]1c1ccc(OC(F)(F)F)cc1 [Example 246, 5-fluoro-N-[[4-(1H-tetrazol-5-ylmethyl)phenyl]methyl]-6-[(3S)-3-[4-(trifluoromethoxy)phenyl]morpholin-4-yl]pyrimidin-4-amine] | < 500 | >20 | >80
8 | Fc1c(NCC2CCOCC2)ncnc1N1CCOC[C@@H]1c1ccc(C(F)(F)F)cc1 [Example 247, 5-fluoro-N-(tetrahydropyran-4-ylmethyl)-6-[(3S)-3-[4-(trifluoromethyl)phenyl]morpholin-4-yl]pyrimidin-4-amine] | < 10000 | >20 | >80
9 | CC1CC(c2ccc(C(F)(F)F)cc2)N(c2ncnc(NCc3ccc(CC(N)=O)cc3)c2F)C1 (stereo not drawn) [Example 248, 2-[4-[[[5-fluoro-6-[4-methyl-2-[4-(trifluoromethyl)phenyl]pyrrolidin-1-yl]pyrimidin-4-yl]amino]methyl]phenyl]acetamide] | < 1000 | >20 | >80
10 | NC(=O)Cc1ccc(Cn2ccc3c(N4CCOC[C@@H]4c4ccc(OC(F)(F)F)cc4)ncnc32)cc1 [Example 252, 2-[4-[[4-[(3S)-3-[4-(trifluoromethoxy)phenyl]morpholin-4-yl]pyrrolo[2,3-d]pyrimidin-7-yl]methyl]phenyl]acetamide] | < 500 | >80 | >80
11 | CS(=O)(=O)CC1(CNc2ncnc(N3CCOC[C@@H]3c3ccc(C(F)(F)F)cc3)c2F)CCOCC1 [Example 253, 5-fluoro-N-[[4-(methylsulfonylmethyl)tetrahydropyran-4-yl]methyl]-6-[(3S)-3-[4-(trifluoromethyl)phenyl]morpholin-4-yl]pyrimidin-4-amine] | < 1000 | >50 | >80
12 | COC(=O)C1(CNc2ncnc(N3CCOCC3c3ccc(C(F)(F)F)cc3)c2F)CCOCC1 (stereo not drawn) [Example 254, methyl 4-[[[5-fluoro-6-[3-[4-(trifluoromethyl)phenyl]morpholin-4-yl]pyrimidin-4-yl]amino]methyl]tetrahydropyran-4-carboxylate] | < 500 | >50 | >80
13 | NC(=O)C1(CNc2ncnc(N3CCOC[C@@H]3c3ccc(C(F)(F)F)cc3)c2F)CCOCC1 [Example 255, 4-[[[5-fluoro-6-[(3S)-3-[4-(trifluoromethyl)phenyl]morpholin-4-yl]pyrimidin-4-yl]amino]methyl]tetrahydropyran-4-carboxamide] | < 2000 | >20 | >50
14 | N#CC1(CNc2ncnc(N3CCOC[C@@H]3c3ccc(C(F)(F)F)cc3)c2F)CCOCC1 [Example 257, 4-[[[5-fluoro-6-[(3S)-3-[4-(trifluoromethyl)phenyl]morpholin-4-yl]pyrimidin-4-yl]amino]methyl]tetrahydropyran-4-carbonitrile] | < 500 | >50 | >80
15 | NC(=O)Cc1ccc(CNc2ncnc(N3CCOC[C@@H]3c3ccc(OC(F)(F)F)cc3F)c2F)cc1 [Example 258, 2-[4-[[[5-fluoro-6-[(3S)-3-[2-fluoro-4-(trifluoromethoxy)phenyl]morpholin-4-yl]pyrimidin-4-yl]amino]methyl]phenyl]acetamide] | < 500 | >80 | >80
16 | Fc1c(NCC2CCOCC2)ncnc1N1CC(F)(F)CC1c1ccc(C(F)(F)F)cc1 (stereo not drawn) [Example 259, 6-[4,4-difluoro-2-[4-(trifluoromethyl)phenyl]pyrrolidin-1-yl]-5-fluoro-N-(tetrahydropyran-4-ylmethyl)pyrimidin-4-amine] | < 500 | >50 | >80
17 | CS(=O)(=O)CC1(CNc2ncnc(N3CC(F)(F)CC3c3ccc(C(F)(F)F)cc3)c2F)CCOCC1 (stereo not drawn) [Example 260, 6-[4,4-difluoro-2-[4-(trifluoromethyl)phenyl]pyrrolidin-1-yl]-5-fluoro-N-[[4-(methylsulfonylmethyl)tetrahydropyran-4-yl]methyl]pyrimidin-4-amine] | < 500 | >50 | >80
18 | OCC1(CNc2ncnc(N3CC(F)(F)CC3c3ccc(C(F)(F)F)cc3)c2F)COC1 (stereo not drawn) [Example 261, [3-[[[6-[4,4-difluoro-2-[4-(trifluoromethyl)phenyl]pyrrolidin-1-yl]-5-fluoro-pyrimidin-4-yl]amino]methyl]oxetan-3-yl]methanol] | < 1000 | >20 | >80
19 | CC(=O)N1CCC(F)(CNc2ncnc(N3CCOC[C@@H]3c3ccc(C(F)(F)F)cc3)c2F)CC1 [Example 262, 1-[4-fluoro-4-[[[5-fluoro-6-[(3S)-3-[4-(trifluoromethyl)phenyl]morpholin-4-yl]pyrimidin-4-yl]amino]methyl]-1-piperidyl]ethanone] | < 1000 | >20 | >50
20 | O=S(=O)(N1CCC(CNc2ncnc(N3CCOC[C@@H]3c3ccc(C(F)(F)F)cc3)c2F)CC1)C(F)(F)F [Example 263, 5-fluoro-6-[(3S)-3-[4-(trifluoromethyl)phenyl]morpholin-4-yl]-N-[[1-(trifluoromethylsulfonyl)-4-piperidyl]methyl]pyrimidin-4-amine] | < 500 | >50 | >80
21 | Fc1c(NCC2(F)CCOCC2)ncnc1N1CCOC[C@@H]1c1ccc(C(F)(F)F)cc1 [Example 264, 5-fluoro-N-[(4-fluorotetrahydropyran-4-yl)methyl]-6-[(3S)-3-[4-(trifluoromethyl)phenyl]morpholin-4-yl]pyrimidin-4-amine] | < 500 | >20 | >80
